Experimental data: ChEMBL document CHEMBL1153296, “Design and synthesis of novel tri-aryl CB2 selective cannabinoid ligands” (Bioorg Med Chem Lett, 2009)

Columns and labels:
[1] = molecular target: Cannabinoid receptor 1 (Homo sapiens, UniProt P21554); test: Binding affinity to human CB1 receptor transfected in HEK293 cells; assay type: cell-based
[2] = species: Homo sapiens; test: Selectivity ratio of Ki for human CB1 receptor to Ki for human CB2 receptor
[3] = molecular target: Cannabinoid receptor 2 (Homo sapiens, UniProt P34972); test: Binding affinity to human CB2 receptor transfected in HEK293 cells; assay type: cell-based
Chain of Cannabinoid receptor 2 (P34972 whole entry): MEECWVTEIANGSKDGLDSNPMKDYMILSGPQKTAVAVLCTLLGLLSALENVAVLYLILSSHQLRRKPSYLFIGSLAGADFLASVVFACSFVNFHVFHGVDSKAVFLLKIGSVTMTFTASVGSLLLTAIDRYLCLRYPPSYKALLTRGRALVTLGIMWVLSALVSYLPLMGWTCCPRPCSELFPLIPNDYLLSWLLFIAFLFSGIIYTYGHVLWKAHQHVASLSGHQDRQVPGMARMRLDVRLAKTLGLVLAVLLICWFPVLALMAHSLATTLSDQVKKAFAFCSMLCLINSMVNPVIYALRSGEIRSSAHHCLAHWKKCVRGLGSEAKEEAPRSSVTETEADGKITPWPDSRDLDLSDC

Chain of Cannabinoid receptor 1 (P21554 whole entry): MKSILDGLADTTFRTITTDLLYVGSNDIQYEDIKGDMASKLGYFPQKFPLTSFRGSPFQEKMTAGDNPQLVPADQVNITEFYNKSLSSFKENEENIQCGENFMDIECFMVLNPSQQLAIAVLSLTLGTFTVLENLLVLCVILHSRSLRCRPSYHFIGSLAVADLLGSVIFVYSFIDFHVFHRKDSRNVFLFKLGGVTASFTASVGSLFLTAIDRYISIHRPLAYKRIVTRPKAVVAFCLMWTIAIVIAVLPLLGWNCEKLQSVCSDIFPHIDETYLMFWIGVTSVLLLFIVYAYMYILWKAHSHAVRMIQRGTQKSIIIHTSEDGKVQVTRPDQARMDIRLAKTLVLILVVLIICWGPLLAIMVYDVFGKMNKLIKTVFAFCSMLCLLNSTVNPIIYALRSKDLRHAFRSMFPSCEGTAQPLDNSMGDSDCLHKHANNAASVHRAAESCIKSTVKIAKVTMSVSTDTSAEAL

SMILES | Ki [1] | Ratio Ki [2] | Ki [3]
COc1cc(C(=O)c2ccccc2)cc(O)c1-c1cc(Cl)cc(Cl)c1 | > 1000 nM | 210 | 
COc1cc(C(O)c2ccccc2)cc(OC)c1-c1cc(Cl)cc(Cl)c1 (centres undefined) | > 1000 nM | 602 | 
CC1=CC[C@@H]2[C@@H](C1)c1c(O)cc(C(C)(C)c3ccccc3)cc1OC2(C)C |  | 13.5 | 
O=C(c1ccccc1)c1cc(O)c(-c2cc(Cl)cc(Cl)c2)c(O)c1 |  | 9.2 | 
CC(C)(c1ccccc1)c1cc(O)c(-c2cc(Cl)cc(Cl)c2)c(O)c1 | 93.7 nM | 87.5 | 1.07 nM
